# Results as given in US11578110B2, “Compounds for inducing tissue formation and uses thereof” (HISTIDE AG, priority 2015, dated 2023).
# Assays:
# [1] = tested on: Human Hematopoietic Stem Cells; assay: CD-34+ stemness marker expression (immunostaining, ImageJ quantification); assay type: cell-based; conditions: peptides grafted on a PET surface; 48 hours
# hMSCs [2] = assay: STRO-1 stemness marker expression in hMSCs (immunostaining, ImageJ quantification); assay type: cell-based, Human; conditions: SEQ ID NO: 1 to 49 tested in combination with a bioactive carrier (titanium, ceramics, PEEK, hydrogel, etc.)
# How it was run: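 hMSCs exposed to GFR-binding peptides in solution or grafted on surfaces; cells fixed in 4% paraformaldehyde, permeabilized, stained with Stro-1 antibody (1 h, 37° C) plus Alexa Fluor secondary and DAPI. Stro-1 positive contact number and area quantified by thresholded image analysis, at least 30 cells per condition.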
# Hair Follicle Stem Cells = assay: Activation of hair follicle stem cells on modified hydrogels (Sox2, BMP-6 release); assay type: cell-based, Mouse; conditions: hydrogel 73 kPa covalently modified
# hMSCs [3] = assay: Chondrocyte differentiation of hMSCs on modified hydrogels (Sox9, Aggrecan); assay type: cell-based, Human; conditions: 96 hours, hydrogel 14 kPa covalently modified; for Aggrecan gene expression: semi-quantitative RT-PCR
# Experimental: (§1) Total RNA was extracted by using the RNeasy total RNA kit (Qiagen®) according to the manufacturer's instructions. Purified total RNA was used as a template in order to make cDNA by a reverse transcription reaction (Gibco Brl®) with random primers (Invitrogen®). The cDNA was then used as a template for a real-time PCR amplification in the presence of SYBR green reagents (Bio-Rad®) by using a thermocycler (iCycler, Biorad®). Data were analyzed with the iCycler IQ™® software and compared by the ΔΔCt method. Briefly, the mean Ct value of the target gene was normalized to its averaged Ct values of the housekeeping gene (HPRT) to give a ΔCt value, which was then normalized to a control sample to obtain a ΔΔCt value.
# Total RNA was extracted by using the RNeasy Mini Kit (Qiagen) and […] RNA was used for cDNA synthesis with AMV kit (Invitrogen®) according to the manufacturer' instructions. Semi-quantitative reverse transcriptase-polymerase chain reaction (RT-PCR) was performed with Taq DNA Polymerase (Invitrogen®) in a thermocycler (Bio-Rad®). The cDNA input was normalized to […] (HPRT). The PCR products were analyzed on 2% agarose gels. For the Aggrecan gene, the PCR bands were densitometrically quantified by using the BioCapt software (Vilber). Values were normalized to HPRT, and results were reported as relative gene expression.
# For that a semi-quantitative RT-PCR was performed as described in the Methods section for the Aggrecan gene and a Quantitative Real Time PCR for Sox9.
# Neurons = assay: Neuron growth on modified titanium (dendrite growth, GAP43 Q-PCR); assay type: cell-based; conditions: covalently modified titanium
# Experimental: as §1
# Neurons were cultured on native titanium (control) and on titanium covalently modified with neurogenic peptides (SEQ ID NO: 49). […] To further confirm this the expression of the Growth Associated Protein 43 (GAP43) gene was verified for neuron cells cultured on materials covalently modified with neurogenic peptides (SEQ ID NO: 49).
# [4] = Stability of non-covalent peptide coating on apatite ceramics / type-I collagen (fluorescent peptides); assay type: physicochemical; conditions: non-covalent coating on apatite ceramics (SEQ ID NO: 23) or type-I collagen sponge (SEQ ID NO: 22); 3, 7 or 10 days
# Experimental: Non-covalent modifications of the materials were performed in Air Atmosphere at room temperature. The non-covalent coating strategy consisted in using a mixture of inducing peptide (SEQ ID NO: 23; concentration of 1×10^−3M) with an apatite ceramics implant or a mixture of inducing peptide (SEQ ID NO: 22; concentration of 1×10^−3M) with a type-I collagen sponge. The non-covalently coated conventional materials were characterized by using fluorescent peptides (Here SEQ ID NO: 22 and 23 covalently bound to fluorescein isothiocyanate (FITC), FIG. 6). The results shown here in FIG. 6 were obtained from experiments performed with apatite ceramics and a type-I collagen sponge. […] Indeed, after 3, 7 or 10 days, the osteogenic peptides were still coupled to the ceramics or the type-I collagen (FIGS. 7a and b).
# [5] = tested on: Human umbilical-vein endothelial cells; assay: Angiogenesis: tube-like structure formation of HUVECs on modified PET; assay type: cell-based; conditions: 18 hours, covalently modified PET
# [6] = tested on: Human umbilical-vein endothelial cells; assay: Endothelialization: adherent junctions (CD31) of HUVECs on modified PET; assay type: cell-based; conditions: 36 hours, covalently modified PET
# Experimental: An increase in the area of the adherent junctions (CD31) was observed after 36 hours of culture on the covalently modified PET (FIG. 13).
# [7] = tested on: Human Mesenchymal Stem Cells (hMSCs); assay: Osteogenic differentiation of human mesenchymal stem cells (Runx2, Osterix immunostaining, ALP activity); assay type: cell-based; conditions: 1 week, type-I collagen sponge coupled with peptide
# [8] = tested on: mouse mesenchymal pre-osteoblastic cells (MC3T3-E1); assay: Osteogenic differentiation of osteoblast progenitors (extracellular matrix, Osteopontin, Runx2 Q-PCR); assay type: cell-based; conditions: 48 hours
# Experimental: The surface profiler system is a non-contact optical profiler that measures a wide range of surface heights. The vertical scanning interferometry mode allows for the measurement of rough surfaces and steps of up to several micrometers. This mode was used in order to measure the thickness of the extracellular matrix produced by the cells. First, after 24 h of culture, the cells were fixed with paraformaldehyde in PBS (4%) for 30 minutes at 4° C. and the samples were dehydrated in increasing concentrations of ethanol (30, 70, 80, 90, 95 and 100%) and critical-point dried. To evaluate the extent of the newly synthesized extracellular matrix, a spatula was used to scratch the surface of the materials. The samples were then metallized for 10 sec with gold or titanium before being analyzed.
# Total RNA was extracted by using the RNeasy total RNA kit (Qiagen®) according to the manufacturer's instructions. Purified total RNA was used as a template in order to make cDNA by a reverse transcription reaction (Gibco Brl®) with random primers (Invitrogen®). […] Data were analyzed with the iCycler IQ™® software and compared by the ΔΔCt method. […]
# The effect of these GFR-binding compounds as defined herein (SEQ ID NO: 33) on the differentiation of osteoblast progenitors was evaluated. […]
Sequence,CD34+ Expression [1] [%],STRO-1 expression (hMSCs [2]) [%],further results
AASKASSVPAKMRPVQTRKI (GFR-binding peptide) [SEQ ID NO: 1085],19,–,–
AASKASSVPEKLSSLSILFF [SEQ ID NO: 41],–,28,BMP-6 release in the cell culture medium (Hair Follicle Stem Cells): decrease; Sox2 protein expression (Hair Follicle Stem Cells): increase
AASKASSVPQQLSSLSTLFF (GFR-binding peptide) [SEQ ID NO: 1073],29,–,–
AASKASSVPTKMEPISTLYL (GFR-binding peptide) [SEQ ID NO: 1078],30,–,–
AVPKASSAPTKLEPLPIVYY [SEQ ID NO: 36],–,21,expression of the Sox9 protein (hMSCs [3]): observed; Aggrecan gene expression (hMSCs [3]): increased expression
GIPEPSSVPAKMSPISILYI [SEQ ID NO: 49],–,19,"cell-cell contacts via dendrite growth (Neurons; 6 hours): rapid establishment; GAP43 gene expression (Neurons; 48 hours, Q-PCR): high level of expression"
GSAGPSSVPEKMSSLSILFF [SEQ ID NO: 42],–,26,BMP-6 release in the cell culture medium (Hair Follicle Stem Cells): decrease; Sox2 protein expression (Hair Follicle Stem Cells): increase
GTPGPHVTKPTSVPTKLSAISMLYL (GTPGPHVTKPTXVPTKLSAISMLYL; GFR-binding peptide; MOD_RES (12)..(12): Xaa is C or S) [SEQ ID NO: 23],–,28,release of peptides over time [4]: no significant release
KIPKASSTPTGQSNITMQIM (GFR-binding peptide) [SEQ ID NO: 1082],18,–,–
KIPKASSTPTRLRSVKMAKV (GFR-binding peptide) [SEQ ID NO: 1083],17,–,–
KIPKASSVPEELEPLPTVYY (GFR-binding peptide) [SEQ ID NO: 1081],33,–,–
KIPKASSVPTKMRPVQMRKI (GFR-binding peptide) [SEQ ID NO: 1084],18,–,–
KIPKASSVSQELEPLTILYY [SEQ ID NO: 37],–,17,expression of the Sox9 protein (hMSCs [3]): observed; Aggrecan gene expression (hMSCs [3]): increased expression
KVGKASSVPTKLSNITMQIM [SEQ ID NO: 39],–,32,formation of tube-like structures [5]: observed
RVPSTSSAPVEESPISTLYI (GFR-binding peptide) [SEQ ID NO: 1076],27,–,–
RVPSTSSTPTKMKPLSILYV (GFR-binding peptide) [SEQ ID NO: 1080],31,–,–
RVPSTSSTQVRLSPISMLFI (GFR-binding peptide) [SEQ ID NO: 1077],24,–,–
RVPSTSSVPQQLNAISTLYF (GFR-binding peptide) [SEQ ID NO: 1074],32,–,–
RVPSTSSVPTDLSSLSILFF (GFR-binding peptide) [SEQ ID NO: 1072],26,–,–
RVPSTSSVPTELSAISVLYL (GFR-binding peptide) [SEQ ID NO: 1071],29,–,–
STPPTSSSRVRLRSVKVAKV [SEQ ID NO: 38],–,34,area of the adherent junctions (CD31) [6]: increase
WWFWGAAPASSSVPTRLSPISVLYK (WWFWGAAPASXXVPTRLSPISVLYK; GFR-binding peptide; MOD_RES (11)..(12): Xaa is C or S) [SEQ ID NO: 32],–,27,ALP activity [7]: increase
WWFWGKASKASSVPTKLSAISMLYL (WWFWGKASKAXXVPTKLSAISMLYL; GFR-binding peptide; MOD_RES (11)..(12): Xaa is C or S) [SEQ ID NO: 33],–,26,"differentiation of osteoblast progenitors ([8]; apatite ceramics or type-I collagen sponge coupled with peptide): differentiated into mature osteoblasts; production of extracellular matrix proteins such as Osteopontin (OPN) ([8]; vs native type-I collagen sponge, immunofluorescence): extensive amounts"
WWFWGSAGPSSTPTKMSAISMLYL (WWFWGSAGPXXTPTKMSAISMLYL; GFR-binding peptide; MOD_RES (10)..(11): Xaa is C or S) [SEQ ID NO: 22],–,29,release of peptides over time [4]: no significant release
